# Laboratory results published in ChEMBL document CHEMBL3352157, “1,2,4-triazolo[1,5-a]quinoxaline derivatives and their simplified analogues as adenosine A₃ receptor antagonists. Synthesis, structure-affinity relationships and molecular modeling studies” (Bioorg Med Chem, 2015).
# pKi: −log10 of the molar value. Active and inactive are the calls of the source. The calls are words filed in the database; no cut-off is given here.
# Columns and labels:
# [1] = molecular target: T1, Adenosine receptor A3 (Homo sapiens) (UniProt P0DMS8); experiment: Displacement of [125I]AB-MECA from human adenosine A3 receptor expressed in CHO cells at 1 uM; assay type: cell-based
# T1 sequence (whole entry): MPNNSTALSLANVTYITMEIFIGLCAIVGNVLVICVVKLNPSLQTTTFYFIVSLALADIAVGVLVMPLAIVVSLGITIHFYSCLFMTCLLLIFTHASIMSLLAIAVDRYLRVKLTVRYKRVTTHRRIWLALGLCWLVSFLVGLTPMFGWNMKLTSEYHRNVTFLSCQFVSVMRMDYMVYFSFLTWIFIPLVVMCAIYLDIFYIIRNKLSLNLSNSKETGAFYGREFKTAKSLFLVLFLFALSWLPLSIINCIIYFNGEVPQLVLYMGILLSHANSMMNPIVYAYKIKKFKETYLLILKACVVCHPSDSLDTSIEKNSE
# [2] = molecular target: T2, Adenosine receptor A1 (Homo sapiens) (UniProt P30542); experiment: Displacement of [3H]DPCPX from human adenosine A1 receptor expressed in CHO cells at 10 uM; assay type: cell-based
# T2 sequence (whole entry): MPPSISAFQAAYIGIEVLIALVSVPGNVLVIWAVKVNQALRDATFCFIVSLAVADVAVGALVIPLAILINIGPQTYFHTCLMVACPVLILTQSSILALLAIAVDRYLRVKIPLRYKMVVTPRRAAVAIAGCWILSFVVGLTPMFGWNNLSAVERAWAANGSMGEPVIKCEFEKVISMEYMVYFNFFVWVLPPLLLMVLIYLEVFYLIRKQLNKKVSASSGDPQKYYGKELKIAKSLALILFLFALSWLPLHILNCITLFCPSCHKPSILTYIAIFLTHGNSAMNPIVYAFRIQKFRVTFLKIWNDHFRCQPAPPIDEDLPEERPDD
# Adenosine receptor A2a [3] = molecular target: T3, Adenosine receptor A2a (Homo sapiens, UniProt P29274); experiment: Displacement of [3H]NECA from human adenosine A2A receptor expressed in CHO cells at 10 uM; assay type: cell-based
# Adenosine receptor A3 = molecular target: T4, Adenosine receptor A3 (Homo sapiens, UniProt P0DMS8); experiment: Displacement of [125I]AB-MECA from human adenosine A3 receptor expressed in CHO cells; assay type: cell-based
# T4 sequence (P0DMS8 whole entry): T1 sequence (whole entry)
# Adenosine receptor A1 = molecular target: T5, Adenosine receptor A1 (Homo sapiens, UniProt P30542); experiment: Displacement of [3H]DPCPX from human adenosine A1 receptor expressed in CHO cells; assay type: cell-based
# T5 sequence (P30542 whole entry): T2 sequence (whole entry)
# [4] = molecular target: T6, Adenosine receptor A2b (Homo sapiens) (UniProt P29275); experiment: Agonist activity at human recombinant adenosine A2B receptor expressed in CHO cells assessed as cAMP accumulation at 10 uM after 15 mins by liquid scintillation counting analysis; assay type: functional, cell-based
# T6 sequence (whole entry): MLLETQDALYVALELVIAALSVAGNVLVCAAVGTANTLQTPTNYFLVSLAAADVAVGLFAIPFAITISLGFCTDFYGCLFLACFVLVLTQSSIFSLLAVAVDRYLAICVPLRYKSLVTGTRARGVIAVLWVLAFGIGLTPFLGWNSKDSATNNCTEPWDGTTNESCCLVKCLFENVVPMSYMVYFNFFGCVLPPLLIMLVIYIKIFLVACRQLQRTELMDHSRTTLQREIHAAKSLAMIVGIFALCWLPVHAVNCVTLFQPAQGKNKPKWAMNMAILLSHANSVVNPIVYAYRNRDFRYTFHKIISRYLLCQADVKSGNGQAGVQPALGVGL
# [5] = molecular target: T6, Adenosine receptor A2b (Homo sapiens); experiment: Antagonist activity at human recombinant adenosine A2B receptor expressed in CHO cells assessed as inhibition of NECA-induced cAMP accumulation measured as cAMP level at 10 uM incubated for 15 mins prior to NECA challenge measured after 30 mins by liquid scintillation counting analysis relative to control; assay type: functional, cell-based; parameters: scale not given: the % may be the effect or the level left
# Adenosine receptor A2a [6] = molecular target: T3, Adenosine receptor A2a; experiment: Displacement of [3H]NECA from human adenosine A2A receptor expressed in CHO cells; assay type: cell-based
# T3 sequence (P29274 whole entry): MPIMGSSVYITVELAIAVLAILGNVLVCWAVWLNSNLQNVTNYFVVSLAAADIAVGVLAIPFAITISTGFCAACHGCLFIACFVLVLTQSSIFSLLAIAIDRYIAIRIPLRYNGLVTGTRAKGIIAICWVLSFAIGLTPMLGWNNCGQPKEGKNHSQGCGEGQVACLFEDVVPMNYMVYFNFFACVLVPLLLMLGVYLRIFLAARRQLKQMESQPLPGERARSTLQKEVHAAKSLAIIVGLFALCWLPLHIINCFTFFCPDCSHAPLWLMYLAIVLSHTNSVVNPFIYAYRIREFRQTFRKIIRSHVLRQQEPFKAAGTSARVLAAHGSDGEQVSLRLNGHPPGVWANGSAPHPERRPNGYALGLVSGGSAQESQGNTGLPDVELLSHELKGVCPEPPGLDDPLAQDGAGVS
inhibition [1] [%],inhibition [2] [%],inhibition (Adenosine receptor A2a [3]) [%],pKi (Adenosine receptor A3),pKi (Adenosine receptor A1),Activity [4],Activity [5] [%],pKi (Adenosine receptor A2a [6]),SMILES
,,9,7.90,6.25,inactive,104,,CCOC(=O)N1Cc2nc(-c3ccccc3)nn2-c2cc(C)ccc21
55,,52,,5.87,,,,CCC(=O)N1Cc2nc(-c3ccccc3)nn2-c2ccccc21
,,33,8.19,6.87,inactive,68.6,,CCC(=O)N1Cc2nc(-c3ccccc3)nn2-c2cc(C)ccc21
,49,13,7.63,,inactive,109,,C#CCOC(=O)N1Cc2nc(-c3ccc(OC)cc3)nn2-c2cc(C)ccc21
,,56,6.77,6.25,,,,CCCOC(=O)N1Cc2nc(-c3ccccc3)nn2-c2cc(C)ccc21
,34,50,6.61,,,,,COC(=O)N1Cc2nc(-c3ccccc3)nn2-c2ccccc21
22,,33,,5.34,,,,CCOC(=O)N1Cc2nc(-c3ccccc3)nn2-c2ccccc21
,45,4,6.64,,,,,COc1ccc(-c2nc3n(n2)-c2cc(C)ccc2N(C(=O)OCc2ccccc2)C3)cc1
,39,24,7.14,,inactive,63.7,,CCC(=O)N1Cc2nc(-c3ccccc3)nn2-c2cc(Cl)ccc21
,,32,7.50,5.83,inactive,74.9,,COC(=O)N1Cc2nc(-c3ccccc3)nn2-c2cc(C)ccc21
,,,6.78,,,,,CCOC(=O)N1Cc2nc(-c3ccccc3)nn2-c2cc(Cl)ccc21
,,6,7.60,5.81,inactive,102,,CCC(=O)N1Cc2nc(-c3ccc(OC)cc3)nn2-c2cc(C)ccc21
,,2,7.40,7.07,,,,CCOC(=O)N1Cc2nc(-c3ccc(OC)cc3)nn2-c2cc(C)ccc21

# The next lines start with the molecule.
SMILES,inhibition [1] [%],inhibition [2] [%],inhibition (Adenosine receptor A2a [3]) [%],pKi (Adenosine receptor A3),pKi (Adenosine receptor A1),Activity [4],Activity [5] [%],pKi (Adenosine receptor A2a [6])
COc1ccc(-c2ncn(-c3cc(C)ccc3NC(=O)OCc3ccccc3)n2)cc1,47,2,7,,,,,
C#CCOC(=O)Nc1ccc(C)cc1-n1cnc(-c2ccc(OC)cc2)n1,35,,16,,,,,
COc1ccc(-c2nc(NC(=O)c3ccccc3)n(-c3ccccc3)n2)cc1,50,25,43,,,,,
CCOC(=O)Nc1ccc(C)cc1-n1cnc(-c2ccc(OC)cc2)n1,34,6,13,,,,,
COc1ccc(-c2nc(N(C(=O)c3ccccc3)C(=O)c3ccccc3)n(-c3ccccc3)n2)cc1,44,55,13,,,,,
COc1ccc(-c2nc3cnc4ccc(C)cc4n3n2)cc1,,,30,7.58,5.70,inactive,42.6,
COc1ccc(-c2nc(NC(=O)Nc3ccccc3)n(-c3ccccc3)n2)cc1,,1,7,6.26,,,,
COc1ccc(-c2nc(N(C(C)=O)C(C)=O)n(-c3ccccc3)n2)cc1,19,26,4,,,,,
COc1ccc(-c2nc3n(n2)-c2cc(C)ccc2N(C(=O)Cc2ccccc2)C3)cc1,,39,0,7.26,,inactive,89.5,
c1ccc(-c2nc3cnc4ccccc4n3n2)cc1,,,,7.04,,,,
Clc1ccc2ncc3nc(-c4ccccc4)nn3c2c1,,,19,7.82,6.89,,,
Cc1ccc2ncc3nc(-c4ccccc4)nn3c2c1,,,,7.62,5.88,,,5.62
COc1ccc(-c2ncn(-c3cc(C)ccc3NC(=O)Cc3ccccc3)n2)cc1,45,44,1,,,,,
